From patent publication US20230399312A1, “SUBSTITUTED PYRIMIDINES AND METHODS OF USE” (THERAVANCE BIOPHARMA R&D IP, LLC, priority 2020, published 2023)

Experiments:
[1] = target: T1, recombinant human ALK5 (TGF-βR1) protein (Homo sapiens, UniProt P36897); test: Biochemical ALK5 (TGF-βR1) assay to measure pKi (LANCE Ultra ULight kinase assay); conditions: apparent pKi, converted from pIC50 by Cheng-Prusoff
T1 construct: purchased Life Technologies PR9075A
T1 sequence (P36897 34-503): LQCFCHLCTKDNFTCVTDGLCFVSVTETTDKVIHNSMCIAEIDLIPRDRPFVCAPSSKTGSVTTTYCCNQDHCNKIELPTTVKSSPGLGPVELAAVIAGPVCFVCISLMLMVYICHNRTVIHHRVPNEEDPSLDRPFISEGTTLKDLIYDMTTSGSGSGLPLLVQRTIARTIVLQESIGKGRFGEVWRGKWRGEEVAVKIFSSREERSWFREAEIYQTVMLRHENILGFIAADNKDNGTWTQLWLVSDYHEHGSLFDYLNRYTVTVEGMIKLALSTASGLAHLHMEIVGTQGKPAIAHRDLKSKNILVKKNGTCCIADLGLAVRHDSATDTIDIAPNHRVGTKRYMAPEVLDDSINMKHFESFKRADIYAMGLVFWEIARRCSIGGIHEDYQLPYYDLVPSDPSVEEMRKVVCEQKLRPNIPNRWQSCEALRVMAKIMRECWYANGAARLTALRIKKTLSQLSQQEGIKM
Procedure, shortened: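 Cmpd + enzyme, 60 min RT; ATP from 125 μM (5×) stock, 60 min 37 °C; stop 12 mM EDTA/Eu anti-pThr1342 Topo2α Ab (pH 7.0 buffer); TR-FRET 665 nm. DMSO = max, SD-208 = min signal. 4-PL pIC50 → pKi (Cheng-Prusoff).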

[2] = tested on: TGF-β-stimulated SMAD3 phosphorylation in BEAS-2B cells; test: Cellular ALK5 potency assay, inhibition of TGF-β stimulated pSMAD3 formation in BEAS-2B cells; assay type: cell-based; conditions: Homo sapiens, pSMAD3, TGF-β 10 ng/mL, read-out: BEAS2B pIC50 (converted)
Procedure, shortened: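 Read-out is AlphaLISA detection of phospho-SMAD3 in lysates of BEAS-2B human lung epithelial cells. Cells are exposed to compound for 1 hour, then to 10 ng/mL TGF-β (final) for 30 minutes. Values are pIC50 from concentration–response curves.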

Ki [1] [nM] | Compound | IC50 [2] [nM]
0.0398 to 0.316 | Cc1cccc(-c2nccc(Nc3ccnc(Nc4cnn(CCC5CCNCC5)c4)n3)n2)n1 [Compound 390, N4-[2-(6-methyl-2-pyridyl)pyrimidin-4-yl]-N2-[1-[2-(4-piperidyl)ethyl]pyrazol-4-yl]pyrimidine-2,4-diamine] | 200 to 1260
≤ 0.0316 | Cc1cccc(-c2nccc(Nc3ccnc(Nc4ccc(S(=O)(=O)NCCN)cc4)n3)n2)n1 [Compound 208, N-(2-aminoethyl)-4-[[4-[[2-(6-methyl-2-pyridyl)pyrimidin-4-yl]amino]pyrimidin-2-yl]amino]benzenesulfonamide] | ≤ 20
0.398 to 3.16 | Cc1cccc(-c2nccc(Nc3ccnc(Nc4ccc(N5CCC(CNCc6ccccc6)CC5)cc4)n3)n2)n1 [Compound 471, N2-[4-[4-[(benzylamino)methyl]-1-piperidyl]phenyl]-N4-[2-(6-methyl-2-pyridyl)pyrimidin-4-yl]pyrimidine-2,4-diamine] | 200 to 1260
0.0398 to 0.316 | Cc1cccc(-c2nccc(Nc3ccnc(Nc4ccc(CN5CCOCC5)c(F)c4)n3)n2)n1 [Compound 242, N2-[3-fluoro-4-(morpholinomethyl)phenyl]-N4-[2-(6-methyl-2-pyridyl)pyrimidin-4-yl]pyrimidine-2,4-diamine] | 25.1 to 158
0.0398 to 0.316 | Cc1cccc(-c2nccc(Nc3ccnc(Nc4ccc(NC(=O)C5CCNCC5)c(Cl)c4)n3)n2)n1 [Compound 158, N-[2-chloro-4-[[4-[[2-(6-methyl-2-pyridyl)pyrimidin-4-yl]amino]pyrimidin-2-yl]amino]phenyl]piperidine-4-carboxamide] | 25.1 to 158
0.0398 to 0.316 | Cc1cccc(-c2nccc(Nc3ccnc(Nc4cccc(C(=O)OC5CNC5)c4)n3)n2)n1 [Compound 260, azetidin-3-yl 3-[[4-[[2-(6-methyl-2-pyridyl)pyrimidin-4-yl]amino]pyrimidin-2-yl]amino]benzoate] | 25.1 to 158
3.98 to 31.6 | Cc1cccc(-c2nccc(Nc3ccnc(Nc4ccc(N5CCOCC5)cc4O)n3)n2)n1 [Compound 410, 2-[[4-[[2-(6-methyl-2-pyridyl)pyrimidin-4-yl]amino]pyrimidin-2-yl]amino]-5-morpholino-phenol] | 25.1 to 158
0.0398 to 0.316 | CN(C)C1CCN(c2ccc(Nc3nccc(Nc4ccnc(-c5cc(Cl)c(F)cc5F)n4)n3)cc2)CC1 [Compound 246, N4-[2-(5-chloro-2,4-difluoro-phenyl)pyrimidin-4-yl]-N2-[4-[4-(dimethylamino)-1-piperidyl]phenyl]pyrimidine-2,4-diamine] | 25.1 to 158
0.0398 to 0.316 | Cc1cccc(-c2nccc(Nc3ccnc(Nc4ccc(C(=O)OC5CCNCC5)s4)n3)n2)n1 [Compound 239, 4-piperidyl 5-[[4-[[2-(6-methyl-2-pyridyl)pyrimidin-4-yl]amino]pyrimidin-2-yl]amino]thiophene-2-carboxylate] | 25.1 to 158
3.98 to 31.6 | Cc1cccc(-c2nccc(Nc3ccnc(Nc4ccc(S(N)(=O)=O)cn4)n3)n2)n1 [Compound 119, 6-[[4-[[2-(6-methyl-2-pyridyl)pyrimidin-4-yl]amino]pyrimidin-2-yl]amino]pyridine-3-sulfonamide] | 25.1 to 158
0.398 to 3.16 | COC(=O)c1ccc(Nc2nccc(Nc3ccnc(-c4cccc(C)n4)n3)n2)cc1 [Compound 62, methyl 4-[[4-[[2-(6-methyl-2-pyridyl)pyrimidin-4-yl]amino]pyrimidin-2-yl]amino]benzoate] | 25.1 to 158
0.0398 to 0.316 | CN1CCN(C2CCN(c3ccc(Nc4nccc(Nc5ccnc(-c6cc(Cl)ccc6F)n5)n4)cc3)CC2)CC1 [Compound 436, N4-[2-(5-chloro-2-fluoro-phenyl)pyrimidin-4-yl]-N2-[4-[4-(4-methylpiperazin-1-yl)-1-piperidyl]phenyl]pyrimidine-2,4-diamine] | 25.1 to 158
0.0398 to 0.316 | Cc1nc(-c2nccc(Nc3ccnc(Nc4ccc(N5CCC(N6CCN(C)CC6)CC5)cc4)n3)n2)ccc1F [Compound 542, N4-[2-(5-fluoro-6-methyl-2-pyridyl)pyrimidin-4-yl]-N2-[4-[4-(4-methylpiperazin-1-yl)-1-piperidyl]phenyl]pyrimidine-2,4-diamine] | 25.1 to 158
0.0398 to 0.316 | Cc1cccc(-c2nccc(Nc3ccnc(Nc4ccc(NC(=O)C5CCN(C6CCOCC6)CC5)cc4)n3)n2)n1 [Compound 77, N-[4-[[4-[[2-(6-methyl-2-pyridyl)pyrimidin-4-yl]amino]pyrimidin-2-yl]amino]phenyl]-1-tetrahydropyran-4-yl-piperidine-4-carboxamide] | 25.1 to 158
0.0398 to 0.316 | Cc1cccc(-c2nccc(Nc3ccnc(Nc4ccc(N5CCCNCC5)cc4)n3)n2)n1 [Compound 196, N2-[4-(1,4-diazepan-1-yl)phenyl]-N4-[2-(6-methyl-2-pyridyl)pyrimidin-4-yl]pyrimidine-2,4-diamine] | 25.1 to 158
0.0398 to 0.316 | CNC1CCN(c2ccc(Nc3nccc(Nc4ccnc(-c5cccc(C)n5)n4)n3)cc2)CC1 [Compound 251, N2-[4-[4-(methylamino)-1-piperidyl]phenyl]-N4-[2-(6-methyl-2-pyridyl)pyrimidin-4-yl]pyrimidine-2,4-diamine] | 200 to 1260
0.398 to 3.16 | Cc1cccc(-c2nccc(Nc3ccnc(Nc4nc(C(=O)OC5CCNCC5)cs4)n3)n2)n1 [Compound 148, piperidin-4-yl 2-((4-((2-(6-methylpyridin-2-yl)pyrimidin-4-yl)amino)pyrimidin-2-yl)amino)thiazole-4-carboxylate] | 25.1 to 158
0.0398 to 0.316 | Cc1cccc(-c2nccc(Nc3ccnc(Nc4cc(C(=O)O[C@@H]5CCN(C)C5)cs4)n3)n2)n1 [Compound 522, [(3R)-1-methylpyrrolidin-3-yl] 5-[[4-[[2-(6-methyl-2-pyridyl)pyrimidin-4-yl]amino]pyrimidin-2-yl]amino]thiophene-3-carboxylate] | 25.1 to 158
0.398 to 3.16 | Cc1cccc(-c2nccc(Nc3ccnc(Nc4ccc(N)cc4)n3)n2)n1 [Compound 5, N2-(4-aminophenyl)-N4-[2-(6-methyl-2-pyridyl)pyrimidin-4-yl]pyrimidine-2,4-diamine] | ≤ 20
≤ 0.0316 | Cc1cccc(-c2nccc(Nc3ccnc(Nc4csc(C(=O)NCC5CNC5)c4)n3)n2)n1 [Compound 89, N-(azetidin-3-ylmethyl)-4-[[4-[[2-(6-methyl-2-pyridyl)pyrimidin-4-yl]amino]pyrimidin-2-yl]amino]thiophene-2-carboxamide] | ≤ 20
3.98 to 31.6 | Fc1cc(F)c(-c2nccc(Nc3ccnc(Nc4ccc(N5CCOCC5)cc4)n3)n2)cc1Cl [Compound 19, N4-[2-(5-chloro-2,4-difluoro-phenyl)pyrimidin-4-yl]-N2-(4-morpholinophenyl)pyrimidine-2,4-diamine] | 25.1 to 158

Compound | Ki [1] [nM] | IC50 [2] [nM]
Cc1cccc(-c2nccc(Nc3ccnc(Nc4ccc(Cl)c(CN5C6CCC5CNC6)c4)n3)n2)n1 [Compound 487, N2-[4-chloro-3-(3,8-diazabicyclo[3.2.1]octan-8-ylmethyl)phenyl]-N4-[2-(6-methyl-2-pyridyl)pyrimidin-4-yl]pyrimidine-2,4-diamine] | 0.0398 to 0.316 | 25.1 to 158
